Source: patent US6368788B1 (priority 1987, dated 2002)
Marks after values point to notes of the source that are not given here.

Assays:
[1] = Dental caries: toothpaste containing L-Glu-L-Trp; type: in vivo, human
Method: The use of dental toothpaste containing L-Glu-L-Trp will have the secondary effect of reducing incidence and severity of gingival disease. Patients with odontogenic infections and periapical granulomas can be treated with 100 μg of L-Glu-L-Trp instilled into the foramen at the base of the tooth, or alternatively, L-Glu-L-Trp can be compounded in a filling paste which is packed into the base of the tooth.

[2] = Lymphatic infections (lymphangitis); type: in vivo; conditions: 100 μg im, 1 μg/kg intranasally or intralymphatically
Corneal diseases = conditions: in vivo
[3] = Bronchial asthma (Protocol A); type: in vivo, human
Method: Sixty five patients (65) with bronchial asthma, including both adults and children, were entered into the trial: 37 patients were treated with L-Glu-L-Trp and 28 (controls) received conventional therapy alone. L-Glu-L-Trp was administered im in a single daily dose of 1 μg/kg on each of 5-10 consecutive days. […] In certain patients it was possible to eliminate the use of prescribed steroids.

Staphylococcus aureus = test: Survival after Staphylococcus aureus peritonitis, therapeutic treatment 1 hour after challenge; type: in vivo, mice; conditions: for Percentage Survivors: ip therapeutic 1 hour after challenge
Method: EXAMPLES 32-34, above, test substance (i.e., L-Glu-L-Trp alone or in combination with antibiotic, or antibiotic alone) was injected sc, ip, po one hour after the bacterial challenge.

bone marrow cells = test: Bone marrow and peripheral blood cells in 5-FU immunosuppressed mice; type: in vivo, CBA mice
Method: The effects of L-Glu-L-Trp on bone marrow hematopoietic activity was investigated in 5-fluorouracil (5-FU) immunosuppressed CBA mice. Mice were treated with a dose schedule of 5-FU determined empirically to be sufficient to decrease the absolute number of bone marrow cells and peripheral blood leukocytes by about 50% on day 10-14. Treatment with L-Glu-L-Trp was initiated on day 10, and 1 μg/kg was administered ip daily on that day and each of the following 4 days. Bone marrow and peripheral blood cell populations were quantified on day 15.

C. albicans = test: Disseminated candidiasis: mean survival and kidney infection (Study 41B); type: in vivo, mice; conditions: for Kidney Infection: greater than 8 logs of C. albicans, day 5
Method: Study 41B: Using a standardized inoculum (i.e., 10^8 cells/mL), the LD95 value (=14.9×10^6 cells/animal) was determined by injecting different numbers of C. albicans cells iv into mice and recording deaths at 20 days. L-Glu-L-Trp was administered ip at doses of 1, 10, 100 and 300 μg/kg in either a prophylactic or therapeutic drug regimen (abbreviated PDR or TDR, respectively). Prophylaxis consisted of 3 ip injections on 3 consecutive days, with the last injection being 3 hours before injecting the C. albicans cells iv. Therapy consisted of 10 consecutive daily ip injections starting 24 hours after the iv injection of the C. albicans cells. Mean survival was determined at 10 days, and as an independent monitor for infection, kidneys were removed from nine parallel groups (12 animals each) of infected animals at 5 days and after microbiological isolation the numbers of C. albicans cultures counted.

[4] = bone marrow, 5-FU + 1 μg/kg ip daily 5 days, day 15
[5] = peripheral blood, 5-FU + 1 μg/kg ip daily 5 days, day 15

L-Glu-L-Trp
Clinical outcome [1]: reduction of caries | Clinical outcome [2]: controls the progression of lymphangitis | Clinical outcome (Corneal diseases): stimulates regeneration of corneal epithelium and restoration of visual acuity | Patients with disappearance of symptoms of food and drug allergies ([3]; in vivo): more than half | Decrease in the incidence of bronchial asthmatic attacks ([3]; year long follow-up): 4.2 fold | Percentage Survivors (Staphylococcus aureus; 24 hours, Glu-Trp dose 0.01 μg/kg): 16.7% | Percentage Survivors (Staphylococcus aureus; 24 hours, Glu-Trp dose 0.1 μg/kg): 5.6*† % | Percentage Survivors (Staphylococcus aureus; 24 hours, Glu-Trp dose 1 μg/kg): 27.8† % | Percentage Survivors (Staphylococcus aureus; 24 hours, Glu-Trp dose 10 μg/kg (alone or + Ampicillin)): 66.7* % | Percentage Survivors (Staphylococcus aureus; 24 hours, Glu-Trp dose 100 μg/kg (alone or + Ampicillin)): 66.7* % | Percentage Survivors (Staphylococcus aureus; 48 hours, Glu-Trp dose 0.01 μg/kg): 0% | Percentage Survivors (Staphylococcus aureus; 48 hours, Glu-Trp dose 0.1 μg/kg): 0† % | Percentage Survivors (Staphylococcus aureus; 48 hours, Glu-Trp dose 1 μg/kg): 5.6† % | Percentage Survivors (Staphylococcus aureus; 48 hours, Glu-Trp dose 10 μg/kg (alone or + Ampicillin)): 38.9* % | Percentage Survivors (Staphylococcus aureus; 48 hours, Glu-Trp dose 100 μg/kg (alone or + Ampicillin)): 55.6* % | Percentage Survivors (Staphylococcus aureus; 72 hours, Glu-Trp dose 0.01 μg/kg): 0% | Percentage Survivors (Staphylococcus aureus; 72 hours, Glu-Trp dose 0.1 μg/kg): 0% | Percentage Survivors (Staphylococcus aureus; 72 hours, Glu-Trp dose 1 μg/kg): 0† % | Percentage Survivors (Staphylococcus aureus; 72 hours, Glu-Trp dose 10 μg/kg (alone or + Ampicillin)): 16.7* % | Percentage Survivors (Staphylococcus aureus; 72 hours, Glu-Trp dose 100 μg/kg (alone or + Ampicillin)): 33.3* % | Survival (Staphylococcus aureus; ip, 1 hour after challenge): dose-response relationship between the amount of L-Glu-L-Trp administered ip and the survival of animals | Bone marrow cells (bone marrow cells; 1 μg/kg ip, 5 days): an increase in the numbers of myelocytes/neutrophils, stab and segmented neutrophils, and megakaryocytes | Eosinophils (% of Normal Control Value) (bone marrow cells; [4]): (64%) | Eosinophils: % (bone marrow cells; [4]): 1.1% | Eosinophils: Total Cells (bone marrow cells; [4]): 15600 mg⁻¹ | Erythroblasts (% of Normal Control Value) (bone marrow cells; [4]): (64%) | Erythroblasts: % (bone marrow cells; [4]): 2.1% | Erythroblasts: Total Cells (bone marrow cells; [4]): 29600 mg⁻¹ | Erythroid cells (% of Normal Control Value) (bone marrow cells; [4]): (59%) | Erythroid cells: % (bone marrow cells; [4]): 9.7% | Lymphocytes (% of Normal Control Value) (bone marrow cells; [4]): (88%) | Lymphocytes: % (bone marrow cells; [4]): 43.9% | Lymphocytes: Total Cells (bone marrow cells; [4]): 618900 mg⁻¹ | Megakaryocytes (% of Normal Control Value) (bone marrow cells; [4]): (43%) | Megakaryocytes: % (bone marrow cells; [4]): 0.3% | Megakaryocytes: Total Cells (bone marrow cells; [4]): 4200 mg⁻¹ | Monocytes (% of Normal Control Value) (bone marrow cells; [4]): (60%) | Monocytes: % (bone marrow cells; [4]): 2.5% | Monocytes: Total Cells (bone marrow cells; [4]): 35300 mg⁻¹ | Myeloblasts (% of Normal Control Value) (bone marrow cells; [4]): (74%) | Myeloblasts: % (bone marrow cells; [4]): 5.0% | Myeloblasts: Total Cells (bone marrow cells; [4]): 70600 mg⁻¹ | Myelocytes + Neutrophil Metamyelocytes (% of Normal Control Value) (bone marrow cells; [4]): (40%) | Myelocytes + Neutrophil Metamyelocytes: % (bone marrow cells; [4]): 4.0% | Myelocytes + Neutrophil Metamyelocytes: Total Cells (bone marrow cells; [4]): 56400 mg⁻¹ | Myelokaryocytes (% of Normal Control Value) (bone marrow cells; [4]): (58%) | Myelokaryocytes: Total Cells (bone marrow cells; [4]): 1.41e+06 mg⁻¹ | Non-differentiated blast cells (% of Normal Control Value) (bone marrow cells; [4]): (64%) | Non-differentiated blast cells: % (bone marrow cells; [4]): 2.2% | Non-differentiated blast cells: Total Cells (bone marrow cells; [4]): 31000 mg⁻¹ | Promyeloblasts (% of Normal Control Value) (bone marrow cells; [4]): (74%) | Promyeloblasts: % (bone marrow cells; [4]): 3.6% | Promyeloblasts: Total Cells (bone marrow cells; [4]): 50800 mg⁻¹ | Reticular cells (% of Normal Control Value) (bone marrow cells; [4]): (50%) | Reticular cells: % (bone marrow cells; [4]): 0.7% | Reticular cells: Total Cells (bone marrow cells; [4]): 9800 mg⁻¹ | Stab + Seg. neutrophils (% of Normal Control Value) (bone marrow cells; [4]): (34%) | Stab + Seg. neutrophils: % (bone marrow cells; [4]): 24.9% | Stab + Seg. neutrophils: Total Cells (bone marrow cells; [4]): 351000 mg⁻¹ | Blast Cells: % (bone marrow cells; [5]): 0.3% | Blast Cells: Total Cells (bone marrow cells; [5]): 1e+07 L⁻¹ | Eosinophils (% of Normal Control Value) (bone marrow cells; [5]): (100%) | Eosinophils: % (bone marrow cells; [5]): 0.3% | Eosinophils: Total Cells (bone marrow cells; [5]): 1e+07 L⁻¹ | Lymphocytes (% of Normal Control Value) (bone marrow cells; [5]): (93%) | Lymphocytes: % (bone marrow cells; [5]): 41.9% | Lymphocytes: Total Cells (bone marrow cells; [5]): 2.52e+09 L⁻¹ | Monocytes (% of Normal Control Value) (bone marrow cells; [5]): (18%) | Monocytes: % (bone marrow cells; [5]): 2.5% | Monocytes: Total Cells (bone marrow cells; [5]): 2e+07 L⁻¹ | Peripheral Blood Leukocytes (% of Normal Control Value) (bone marrow cells; [5]): (52%) | Peripheral Blood Leukocytes: Total Cells (bone marrow cells; [5]): 2.98e+09 L⁻¹ | Segmented Neutrophils (% of Normal Control Value) (bone marrow cells; [5]): (22%) | Segmented Neutrophils: % (bone marrow cells; [5]): 14.6% | Segmented Neutrophils: Total Cells (bone marrow cells; [5]): 4.3e+08 L⁻¹ | Stab. Neutrophils (% of Normal Control Value) (bone marrow cells; [5]): (26%) | Stab. Neutrophils: % (bone marrow cells; [5]): 7.9% | Stab. Neutrophils: Total Cells (bone marrow cells; [5]): 2.4e+08 L⁻¹ | Survival % 6d (C. albicans; PDR, 1 μg/kg ip): 50% | Survival % 8d (C. albicans; PDR, 1 μg/kg ip): 20% | Survival Mean (C. albicans; PDR, 1 μg/kg ip): 6.2 ± 2.0 days | Kidney Infection (C. albicans; PDR, 1 μg/kg ip): 58% | Survival % 6d (C. albicans; PDR, 10 μg/kg ip): 60% | Survival % 8d (C. albicans; PDR, 10 μg/kg ip): 20% | Survival Mean (C. albicans; PDR, 10 μg/kg ip): 6.4 ± 2.2 days | Kidney Infection (C. albicans; PDR, 10 μg/kg ip): 58% | Survival % 6d (C. albicans; PDR, 100 μg/kg ip): 80% | Survival % 8d (C. albicans; PDR, 100 μg/kg ip): 40% | Survival Mean (C. albicans; PDR, 100 μg/kg ip): 7.9 ± 1.9 days | Kidney Infection (C. albicans; PDR, 100 μg/kg ip): 75% | Survival % 6d (C. albicans; PDR, 300 μg/kg ip): 80% | Survival % 8d (C. albicans; PDR, 300 μg/kg ip): 50% | Survival Mean (C. albicans; PDR, 300 μg/kg ip): 7.8 ± 2.1 days | Kidney Infection (C. albicans; PDR, 300 μg/kg ip): 58% | Survival % 6d (C. albicans; TDR, 1 μg/kg ip): 60% | Survival % 8d (C. albicans; TDR, 1 μg/kg ip): 50% | Survival Mean (C. albicans; TDR, 1 μg/kg ip): 7.3 ± 2.7 days | Kidney Infection (C. albicans; TDR, 1 μg/kg ip): 67% | Survival % 6d (C. albicans; TDR, 10 μg/kg ip): 50% | Survival % 8d (C. albicans; TDR, 10 μg/kg ip): 30% | Survival Mean (C. albicans; TDR, 10 μg/kg ip): 6.2 ± 2.2 days | Kidney Infection (C. albicans; TDR, 10 μg/kg ip): 50% | Survival % 6d (C. albicans; TDR, 100 μg/kg ip): 80% | Survival % 8d (C. albicans; TDR, 100 μg/kg ip): 50% | Survival Mean (C. albicans; TDR, 100 μg/kg ip): 7.8 ± 1.9 days | Kidney Infection (C. albicans; TDR, 100 μg/kg ip): 75% | Survival % 6d (C. albicans; TDR, 300 μg/kg ip): 80% | Survival % 8d (C. albicans; TDR, 300 μg/kg ip): 40% | Survival Mean (C. albicans; TDR, 300 μg/kg ip): 7.8 ± 2.1 days | Kidney Infection (C. albicans; TDR, 300 μg/kg ip): 67% | Survival (C. albicans; prophylactic and therapeutic treatments): significantly increased the number of animals surviving at days 6 and 8
